From the supplement of paper PMC11061612

Experiments:
Assay in all cases: Bliss excess, mean over the matrix (fraction); higher = more synergy
[1] = test system: CW-2 (Colorectal Carcinoma)
Procedure, shortened: (§1)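 Cell lines grown in DMEM/F12 or RPMI with 10% FBS were plated in 1536-well plates and held 24 hours at 37°C, 5% CO2 before 72 hours of exposure to two-drug dose matrices, with DMSO typically at 0.2%. CellTiter-Glo 2.0 luminescence gave viability, which was converted to inhibition. Vehicle wells were set to 0 and blank wells to 1. Combination Emax is the second-highest inhibition in the matrix, and Bliss excess is the observed combination effect minus the expected EA + EB − EA·EB, where EA and EB are the single-agent effects.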

[2] = test system: VMRC-RCZ (Kidney Carcinoma)
Procedure, shortened: as §1

[3] = test system: COR-L279 (Small Cell Lung Carcinoma)
Procedure, shortened: as §1

[4] = test system: NCCIT (Other Solid Carcinomas)
Procedure, shortened: as §1

[5] = test system: KYSE-270 (Esophageal Squamous Cell Carcinoma)
Procedure, shortened: as §1

[6] = test system: SUP-B15 (B-Lymphoblastic Leukemia)
Procedure, shortened: as §1

[7] = test system: DMS-114 (Small Cell Lung Carcinoma)
Procedure, shortened: as §1

[8] = test system: MN-60 (B-Lymphoblastic Leukemia)
Procedure, shortened: as §1

[9] = test system: KP-3 (Pancreatic Carcinoma)
Procedure, shortened: as §1

[10] = test system: SNU-398 (Hepatocellular Carcinoma)
Procedure, shortened: as §1

[11] = test system: NCI-H526 (Small Cell Lung Carcinoma)
Procedure, shortened: as §1

[12] = test system: ST486 (Burkitt's Lymphoma)
Procedure, shortened: as §1

[13] = test system: MOLM-13 (Acute Myeloid Leukemia)
Procedure, shortened: as §1

[14] = test system: KMS-12-BM (Plasma Cell Myeloma)
Procedure, shortened: as §1

[15] = test system: 8505C (Thyroid Gland Carcinoma)
Procedure, shortened: as §1

M059J (Glioblastoma) = test system: M059J (Glioblastoma)
Procedure, shortened: as §1

[16] = test system: HCC1419 (Breast Carcinoma)
Procedure, shortened: as §1

[17] = test system: SK-GT-2 (Gastric Carcinoma)
Procedure, shortened: as §1

[18] = test system: DAN-G (Pancreatic Carcinoma)
Procedure, shortened: as §1

[19] = test system: RPMI-8226 (Plasma Cell Myeloma)
Procedure, shortened: as §1

Structure (SMILES) | Bliss excess [1] | Bliss excess [2] | Bliss excess [3] | Bliss excess [4] | Bliss excess [5] | Bliss excess [6] | Bliss excess [7] | Bliss excess [8] | Bliss excess [9] | Bliss excess [10] | Bliss excess [11] | Bliss excess [12] | Bliss excess [13] | Bliss excess [14] | Bliss excess [15] | Bliss excess (M059J (Glioblastoma)) | Bliss excess [16] | Bliss excess [17] | Bliss excess [18] | Bliss excess [19]
Cn1cnc2c(F)c(Nc3ccc(Br)cc3Cl)c(C(=O)NOCCO)cc21 [Selumetinib] + CC(C)n1c(=O)n(C)c2cnc3cc(F)c(-c4ccc(OCCCN5CCCCC5)nc4)cc3c21 [AZD1390] (first compound max 10 µM, 7x7, partner max 0.3 µM) | -0.0383 | -0.0387 | -0.0094 | -0.041 | -0.0376 | -0.0281 | -0.0191 | -0.0402 | -0.0456 | -0.053 | -0.0186 | -0.0391 | -0.0306 | 0.0032 | -0.0717 | -0.0375 | -0.0426 | -0.0423 | -0.0484 | 0.0158
C[C@@H](c1ccc2nccn2c1)n1nnc2ncc(-c3cnn(C)c3)nc21 [Savolitinib] + Cc1c2c(nn1C)CSCc1cc(n(C)n1)CSc1cc(c3ccccc3c1)OCCCc1c(C(=O)O)n(C)c3c-2c(Cl)ccc13 [AZD5991] (first compound max 1 µM, 7x7, partner max 1 µM) | -0.0263 | -0.0297 | 0.0219 | -0.0528 | 0.0527 | -0.0555 | -0.0755 | -0.0334 | -0.0785 | -0.0697 | -0.025 | -0.0159 | -0.0112 | -0.0168 | -0.0324 | -0.0289 | 0.0448 | -0.0274 | -0.0434 | -0.0125
CN(CCO)CC[C@H](CSc1ccccc1)Nc1ccc(S(=O)(=O)NC(=O)c2ccc(N3CCC([C@@H](O)c4ccccc4-c4ccc(Cl)cc4)CC3)cc2)cc1S(=O)(=O)C(F)(F)F [AZD4320] + CN(C)CCCOc1ccc(-c2ccc3ncc4c(c3c2)n(C2CCOCC2)c(=O)n4C)cn1 [AZD0156] (first compound max 1 µM, 7x7, partner max 1 µM) | -0.007 | -0.058 | 0.0041 | -0.0299 | -0.0152 | -0.0535 | -0.0466 | 0.0032 | -0.0462 | -0.0009 | -0.0092 | -0.0086 | -0.0649 | 0.0211 | -0.0014 | 0.0015 | -0.0645 | 0.0006 | -0.0031 | 0.0137
CC1(C)CCC(CN2CCN(c3ccc(C(=O)NS(=O)(=O)c4ccc(NCC5CCOCC5)c([N+](=O)[O-])c4)c(Oc4cnc5[nH]ccc5c4)c3)CC2)=C(c2ccc(Cl)cc2)C1 [Venetoclax] + COc1cc(Nc2ncc3c(n2)-c2ccc(Cl)cc2C(c2c(F)cccc2OC)=NC3)ccc1C(=O)O [Alisertib] (first compound max 1 µM, 7x7, partner max 10 µM) | -0.0094 | -0.0292 | 0.103 | 0.0159 | -0.016 | 0.0151 | 0.0341 | 0.0368 | -0.0376 | -0.0219 | 0.194 | -0.133 | 0.0371 | 0.085 | 0.0151 | 0.0401 | -0.0573 | -0.0274 | -0.0024 | 0.0721
Cc1c2c(nn1C)CSCc1cc(n(C)n1)CSc1cc(c3ccccc3c1)OCCCc1c(C(=O)O)n(C)c3c-2c(Cl)ccc13 [AZD5991] + CC1(C)CCC(CN2CCN(c3ccc(C(=O)NS(=O)(=O)c4ccc(NCC5CCOCC5)c([N+](=O)[O-])c4)c(Oc4cnc5[nH]ccc5c4)c3)CC2)=C(c2ccc(Cl)cc2)C1 [Venetoclax] (first compound max 1 µM, 7x7, partner max 1 µM) | 0.0005 | -0.0605 | 0.0071 | -0.032 | 0.0348 | 0.0213 | 0.0306 | -0.031 | -0.0533 | -0.0013 | 0.243 | 0.0088 | 0.125 | 0.0301 | -0.0253 | -0.0539 | 0.0157 | -0.0035 | -0.0352 | 0.007
Cc1cc2ncnn2cc1Nc1ncc2c(n1)n(C1CCOCC1)c(=O)n2C [AZD7648] + C[C@@H]1COCCN1C2=NC(=NC(=C2)C3(CC3)[S@](=N)(=O)C)C4=C5C=CNC5=NC=C4 [AZD6738] (first compound max 10 µM, 7x7, partner max 10 µM) | 0.0297 | 0.0115 | 0.0253 | 0.0116 | 0.0008 | -0.0159 | -0.0072 | -0.0135 | 0.0351 | -0.0097 | 0.0174 | 0.0077 | 0.0003 | 0.0125 | -0.0223 | 0.0282 | -0.0221 | -0.0034 | -0.0093 | -0.0744
CC1(C)CCC(CN2CCN(c3ccc(C(=O)NS(=O)(=O)c4ccc(NCC5CCOCC5)c([N+](=O)[O-])c4)c(Oc4cnc5[nH]ccc5c4)c3)CC2)=C(c2ccc(Cl)cc2)C1 [Venetoclax] + C1CN(CCC1(C(=O)N[C@@H](CCO)C2=CC=C(C=C2)Cl)N)C3=NC=NC4=C3C=CN4 [Capivasertib] (first compound max 1 µM, 7x7, partner max 3 µM) | -0.0259 | -0.0236 | 0.0055 | -0.0285 | 0.0002 | 0.0077 | -0.0467 | -0.0485 | -0.0257 | -0.0081 | -0.0095 | -0.0348 | 0.0074 | 0.0559 | -0.027 | 0.0099 | -0.057 | -0.0211 | -0.0689 | -0.0102
CN(C)CCCOc1ccc(-c2ccc3ncc4c(c3c2)n(C2CCOCC2)c(=O)n4C)cn1 [AZD0156] + CCN(CCO)CCCOc1ccc2c(Nc3cc(CC(=O)Nc4cccc(F)c4)[nH]n3)ncnc2c1 [AZD2811] (first compound max 1 µM, 7x7, partner max 1 µM) | -0.0163 | -0.0451 | 0.0256 | -0.0059 | -0.0307 | -0.0595 | -0.0209 | -0.016 | -0.0417 | -0.0184 | 0.0113 | -0.11 | -0.0617 | 0.13 | -0.0257 | -0.0165 | -0.0427 | -0.0156 | 0.0128 | 0.0092
CC1(C)CCC(CN2CCN(c3ccc(C(=O)NS(=O)(=O)c4ccc(NCC5CCOCC5)c([N+](=O)[O-])c4)c(Oc4cnc5[nH]ccc5c4)c3)CC2)=C(c2ccc(Cl)cc2)C1 [Venetoclax] + Cc1cc2ncnn2cc1Nc1ncc2c(n1)n(C1CCOCC1)c(=O)n2C [AZD7648] (first compound max 1 µM, 7x7, partner max 10 µM) | 0.0049 | -0.0696 | -0.0405 | -0.0326 | -0.0281 | -0.0374 | -0.0205 | -0.0125 | -0.0358 | -0.0427 | 0.0079 | -0.0376 | 0.0014 | 0.0378 | -0.0088 | -0.0144 | -0.0116 | -0.0053 | -0.0106 | 0.0285
Cn1cnc2c(F)c(Nc3ccc(Br)cc3Cl)c(C(=O)NOCCO)cc21 [Selumetinib] + CCN(CCO)CCCOc1ccc2c(Nc3cc(CC(=O)Nc4cccc(F)c4)[nH]n3)ncnc2c1 [AZD2811] (first compound max 10 µM, 7x7, partner max 1 µM) | -0.0142 | -0.0501 | -0.0243 | -0.0657 | 0.0103 | 0.0553 | -0.0166 | -0.0202 | -0.0293 | 0.0026 | -0.017 | 0.0872 | 0.0359 | 0.0832 | -0.0546 | -0.033 | -0.0451 | -0.0443 | 0.0445 | 0.0053
COc1nnc2ccc(N3CCC(c4ccc(OCCN5CCN(C)C(=O)[C@H]5C)cc4)CC3)nn12 [AZD5153] + CC1(C)CCC(CN2CCN(c3ccc(C(=O)NS(=O)(=O)c4ccc(NCC5CCOCC5)c([N+](=O)[O-])c4)c(Oc4cnc5[nH]ccc5c4)c3)CC2)=C(c2ccc(Cl)cc2)C1 [Venetoclax] (first compound max 1 µM, 7x7, partner max 1 µM) | -0.0642 | -0.0224 | -0.0945 | -0.0245 | -0.0185 | 0.0051 | -0.0732 | -0.0708 | -0.0399 | -0.126 | 0.0192 | -0.0493 | 0.0179 | 0.0033 | -0.07 | -0.0124 | -0.0499 | -0.028 | -0.0437 | -0.0035
Cc1cc2ncnn2cc1Nc1ncc2c(n1)n(C1CCOCC1)c(=O)n2C [AZD7648] + CCN(CCO)CCCOc1ccc2c(Nc3cc(CC(=O)Nc4cccc(F)c4)[nH]n3)ncnc2c1 [AZD2811] (first compound max 10 µM, 7x7, partner max 1 µM) | -0.0089 | 0.0038 | -0.0803 | 0.0781 | 0.0332 | -0.0667 | 0.0309 | -0.0061 | 0.0126 | 0.013 | 0.0568 | -0.0697 | -0.0314 | 0.0266 | 0.0059 | -0.0551 | -0.0264 | 0.0137 | 0.0271 | 0.0363
CN(CCO)CC[C@H](CSc1ccccc1)Nc1ccc(S(=O)(=O)NC(=O)c2ccc(N3CCC([C@@H](O)c4ccccc4-c4ccc(Cl)cc4)CC3)cc2)cc1S(=O)(=O)C(F)(F)F [AZD4320] + CCN(CCO)CCCOc1ccc2c(Nc3cc(CC(=O)Nc4cccc(F)c4)[nH]n3)ncnc2c1 [AZD2811] (first compound max 1 µM, 7x7, partner max 1 µM) | -0.0073 | -0.0508 | 0.051 | 0.0034 | -0.0072 | 0.0255 | -0.0398 | -0.0231 | -0.0476 | -0.0135 | 0.105 | -0.0097 | 0.0171 | 0.0816 | 0.0545 | -0.004 | -0.0664 | 0.026 | 0.0038 | 0.0003
Cc1cc2ncnn2cc1Nc1ncc2c(n1)n(C1CCOCC1)c(=O)n2C [AZD7648] + CN(C)CCCOc1ccc(-c2ccc3ncc4c(c3c2)n(C2CCOCC2)c(=O)n4C)cn1 [AZD0156] (first compound max 10 µM, 7x7, partner max 1 µM) | -0.0088 | -0.0314 | -0.0044 | -0.0105 | -0.0004 | -0.0084 | -0.0268 | -0.0405 | 0.0074 | -0.0273 | 0.0429 | -0.0071 | 0.0085 | 0.0032 | -0.0003 | 0.0149 | -0.0515 | -0.0011 | -0.0168 | 0.0171
